We go through one molecule from US20080234368A9, “Therapeutic compositions and methods of use” (Trustees of Dartmouth College, priority 1998, published 2008).

The subject of one assay is COX-2. The experiment in a line: TPA-induced COX-2 in 184B5/HER mammary epithelial cells. The class given is cell-based, human. The settings on record: 184B5/HER cells. The source says:
These cells were selected because of the importance of stromal cell COX-2 in colon carcinogenesis (Oshima et al., 1996). […] Although CDDO effectively blocks the induction of COX-2 by agents such as IFN-γ, LPS, TNF-α, and IL-1, CDDO is ineffective when TPA is used as the inducer of COX-2. This has been seen in 18Co cells, as well as in the human mammary epithelial cell line, 184B5/HER (Zhai et al., 1993).

A further assay relates to rat hippocampal neurons. The experiment in a line: Protection of hippocampal neurons from β-amyloid induced cell death, MTT assay. The class given is cell-based. Here is the method: For the following examples, stock solutions of CDDO (0.01 M) were made in DMSO and aliquots frozen at −20° C. Serial dilutions were made in DMSO before addition to cell culture media. Primary rat microglia and hippocampal neurons were isolated and cultured as described by Flaris et al., 1993 and Ren and Flanders, 1996.
The roles of inflammatory mediators, as well as aberrant programs for cell survival and apoptosis, in the genesis of cancer and Alzheimer's Disease are now undergoing serious investigation (McGeer and McGeer, 1995; Merrill and Benveniste, 1996; Akama et al., 1998). CDDO was tested in this example as a suppressor of de novo formation of iNOS in cultured microglia (the resident macrophages of the brain), as well as its ability to protect cultured hippocampal neurons from cell death induced by β-amyloid. […] Thus, LPS (5 ng/ml) induced iNOS in primary microglial cultures and caused a 27-fold increase in production of NO within 18 h. Concomitant treatment of these cultures with CDDO at either 10^−6 or 10 ^−7 M inhibited this induction by 73% and 52%, respectively. We have also explored the possibility that CDDO can protect cultured hippocampal neurons from cell death induced by the peptide β-amyloid, since NO has been implicated (Akama et al., 1998) in the neurotoxic actions of this peptide which is central to the pathogenesis of Alzheimer's disease (Selkoe, 1997). Hippocampal neurons were isolated and cultured from 16 day rat embryos and then treated with CDDO for 24 h before adding the β-amyloid peptide fragment, amino acids 25-35, at a final concentration of 10 μM. This dosing with β-amyloid alone caused death of more than half of the neurons in the culture within 24 h, as measured by MTT assay.
For orientation: Tetrazolium assays rely on reduction of a dye to a coloured formazan, in cell work by metabolically active cells.

For assay [1], the system named is U937 monocytic leukemia cells. In words: Inhibition of cell proliferation (3H-thymidine incorporation). The class given is cell-based, human. As to conditions: 3 or 4 days, 3H-thymidine 12 h. Here is the method: (§1) All cells were obtained from ATCC, except as noted. They were grown under standard conditions in either DMEM, DMEM/F 12, or RPMI 1640 media plus 5-10% FBS. CDDO, over the dose range 10^−6 to 10^−10 M, was added to cultures at the time of seeding. Three or 4 days later, cells were treated with ^3H-thymidine for 2 h (12 h in the case of leukemia cells), and then incorporation was measured. “ER” means estrogen receptor.
For orientation: Dividing cells build labelled thymidine or BrdU into new DNA.

For assay [2], the system named is NT2/D1 embryonal carcinoma cells. The description is as above. The class given is cell-based, human. The settings on record: 3 or 4 days, 3H-thymidine 2 h. How it is done:
as §1

Assay [3] concerns MCF-7 ER positive breast carcinoma cells. The description is as above. Format: cell-based, human. As to conditions: 3 or 4 days, 3H-thymidine 2 h. How it is done:
as §1

Assay [4] deals with ML-1 myeloblastic leukemia cells. The description is as above. The class given is cell-based, human. The settings on record: 3 or 4 days, 3H-thymidine 12 h. How it is done:
as §1

The next assay relates to A2058 melanoma cells. The assay is described as above. The class given is cell-based, human. The settings on record: 3 or 4 days, 3H-thymidine 2 h. Here is the method: as §1
Assay [5] deals with NB4 promyelocytic leukemia cells. The assay is described as above. The class given is cell-based, human. The settings on record: 3 or 4 days, 3H-thymidine 12 h. Here is the method: as §1
Assay [6] concerns 21-NT ER negative breast carcinoma cells. The assay is described as above. The class given is cell-based, human. As to conditions: 3 or 4 days, 3H-thymidine 2 h. How it is done: as §1
The subject of assay [7] is 21-MT-1 ER negative breast carcinoma cells. Described as above. The settings on record: 3 or 4 days, 3H-thymidine 2 h. Format: cell-based, human. Here is the method:
as §1

Assay [8] concerns AML193 acute myelocytic leukemia cells. The assay is described as above. Format: cell-based, human. The settings on record: 3 or 4 days, 3H-thymidine 12 h. How it is done: as §1
In assay [9] the test system is THP-1 monocytic leukemia cells. The assay is described as above. As to conditions: 3 or 4 days, 3H-thymidine 12 h. The class given is cell-based, human. Here is the method:
as §1

A further assay concerns 3T3-L1 fibroblasts. The experiment in a line: Adipogenic differentiation, induction of GPDH. Format: cell-based. Here is the method: CDDO induces monocytic differentiation in the poorly differentiated LCDB acute myelogenous leukemia cell line, derived from a chemotherapy-resistant patient at the NCI Pediatric Oncology Branch. FIG. 11 illustrates LCDB cells seeded in RPMI 1640/2% FBS, either alone (11A), with 2.5 ng/ml TGF-β1 (11B), with 10^−8 M CDDO (11C), or with both TGF-β1 and CDDO (11D). After 48 h, cytospin slide preparations were made and stained for α-naphthyl acetate esterase activity (kit from Sigma). PC12 cells were cultured for 5 days in gridded dishes in DMEM/10% FBS and 5% horse serum (Smith et al., 1997), either alone (11E), with 100 ng/ml 7S NGF (11F), with 10^−6 M CDDO (11G), or with both NGF and CDDO (11H). […] Methods for quantitative image analysis of size of cells and neurites have been described (De 1a Torre et al., 1997). Control cells in FIG. 11E are approximately 10 μm in diameter. 3T3-L1 cells were grown to confluency in DMEM/5% calf serum, and then treated once with CDDO in DMEM/10% FBS (FIG. 12A) or with CDDO and/or LG100268 in DMEM/10% FBS (FIG. 12B). Every two days thereafter, medium was changed to DMEM/10% FBS, without added CDD0 or LG100268. Cells were harvested on day 8 (FIG. 12A) or day 6 (FIG. 12B), and GPDH was measured in lysates, using a standard assay for consumption of NADH at 340 nm (Wise and Green, 1979). […]

Turning to `CC1(C)CC[C@]2(C(=O)O)CC[C@]3(C)[C@H](C(=O)C=C4[C@@]5(C)C=C(C#N)C(=O)C(C)(C)[C@@H]5CC[C@]43C)[C@@H]2C1` [Compound 6, 2-cyano-3,12-dioxoolean-1,9-dien-28-oic acid], the “blocking of COX-2 induction with TPA as inducer” value in the assay on COX-2 is recorded as “ineffective”. For the same molecule, the “protection against β-amyloid induced cell death” value in the assay on rat hippocampal neurons (CDDO 10^−7 M, 24 h pretreatment, β-amyloid 25-35 10 μM, 24 h) is recorded as “totally prevented this cell death”; in the assay on rat hippocampal neurons (CDDO 10^−8 M, 24 h pretreatment, β-amyloid 25-35 10 μM, 24 h) it was “totally prevented this cell death”; with rat hippocampal neurons (doses as low as 10^−10 M) it was “some protective activity”. The IC50 – broadly, the concentration at which inhibition is half-maximal – was found to be 200 nM in assay [1]; 100 nM in assay [2]; 30 nM in [3]; 100 nM in assay [4]; 200 nM with A2058 melanoma cells; 40 nM in assay [5]. In addition, the IC50 in assay [6] came out at 1000 nM; in [7], 200 nM; in [8], 400 nM; in [9], 50 nM. Also, in the assay on 3T3-L1 fibroblasts (CDDO with LG100268, day 6), the “adipogenic differentiation, combination with RXR-selective retinoid LG100268” value is on record as “acts synergistically”. Also, the “adipogenic differentiation, induction of GPDH” value in the assay with 3T3-L1 fibroblasts (doses as low as 10^−8 M, without insulin, dexamethasone, IBMX, day 8) is on record as “caused adipogenic differentiation”.
